Experimental data taken from patent US12146131B2, “Testing apparatus and testing method” (HITACHI HIGH-TECH CORPORATION, priority 2019, dated 2024).

Legend:
Type in all cases: cell-based
Pseudomonas aeruginosa [1] = assay: drug sensitivity test, turbidity measurement after 18 hours of culture; settings: turbidity after 18 hours from start of culture
Pseudomonas aeruginosa [2] = assay: drug sensitivity test, bacterial area value from time-series microscopic images (image processing of second embodiment); settings: cultured 12 hours, FIG. 10
Source text: (§1) In a drug sensitivity test for bacteria, it is important to measure properties of bacteria and increase or decrease in the number of bacteria, and in a third embodiment, for example, an example applied to the drug sensitivity test will be described. Also in the third embodiment, the fine particle testing apparatus 100 described in the first embodiment can be used. However, the sample solution 108 contains bacteria, a medium component necessary for growth of the bacteria, and an antimicrobial agent to be tested. The fine particle testing apparatus 100 is temperature-adjusted to a temperature suitable for growth of the bacteria, for example, 37° C. Further, a plate having 96 holes or 384 holes can be used as the testing plate 102.
In the fine particle testing apparatus 100, an image is acquired by focusing the lens 104 on the vicinity of the well bottom surface of the testing plate 102 for each imaging. However, in a case where the fine particles are bacteria, in particular, highly motile bacteria, even if adjustment is performed for each imaging so as to focus on one well each time, an image with a clear contour may not be acquired, resulting in an image as illustrated in FIGS. 8A to 8B. As an example of such a case, a measurement example using Pseudomonas aeruginosa considered to have high motility as a bacterium different from the result of FIG. 9 will be described (see FIG. 10). […]

bacteria [3] = assay: drug sensitivity test, turbidity measurement of the well after 18 hours of culture; settings: turbidity after 18 hours from start of culture
Source text: as §1, with “Further, a plate having 96 holes or 384 holes can be used as the testing plate 102.” left out
Here, the sensitivity of this bacterium to ampicillin/sulbactam is found to be “proliferation” at a concentration of 0.5/0.25 μg/mL and “suppression” at a concentration of 32/16 μg/mL by turbidity measurement of the well after 18 hours from the start of culture. […] This example has shown that proliferation/suppression is determined at two concentrations of the antimicrobial agent, but actually, the concentration of the drug is more finely changed to determine proliferation/suppression. The minimum antimicrobial agent concentration is referred to as minimum inhibitory concentration (MIC), and the MIC is preferably calculated based on the result of proliferation/suppression. […]

bacteria [4] = assay: drug sensitivity test, bacterial area value from time-series microscopic images (image processing of first embodiment); settings: FIG. 9
Source text: as §1
FIG. 9 is a diagram illustrating a relationship of the area of a bacterial region corresponding to the sum of area values of fine particles obtained by executing the processing of steps 200 to 204 (image processing of the first embodiment) on a plurality of time-series images obtained by the imaging part 105 of the fine particle testing apparatus 100. This measurement result is a result of imaging bacteria cultured for 8 hours in a culture solution containing ampicillin/sulbactam at concentrations of 0.5/0.25 μg/mL and 32/16 μg/mL.

Row | Substance | sensitivity of bacterium (proliferation/suppression) (Pseudomonas aeruginosa [1]; gentamicin 0.12 μg/mL) | sensitivity of bacterium (proliferation/suppression) (Pseudomonas aeruginosa [1]; gentamicin 8 μg/mL) | bacterial area value over time (Pseudomonas aeruginosa [2]; gentamicin 0.12 μg/mL) | bacterial area value over time (Pseudomonas aeruginosa [2]; gentamicin 8 μg/mL) | sensitivity of bacterium (proliferation/suppression) (bacteria [3]; ampicillin/sulbactam 0.5/0.25 μg/mL) | sensitivity of bacterium (proliferation/suppression) (bacteria [3]; ampicillin/sulbactam 32/16 μg/mL) | bacterial area value over time (bacteria [4]; ampicillin/sulbactam 0.5/0.25 μg/mL, cultured 8 hours) | bacterial area value over time (bacteria [4]; ampicillin/sulbactam 32/16 μg/mL, within 8 hours from start of culture)
1 | gentamicin | proliferation | suppression | starts to increase exponentially after 4 hours from the start of culture | slightly increases |  |  |  | 
2 | ampicillin/sulbactam |  |  |  |  | proliferation | suppression | starts to increase exponentially after 2 hours from the start of culture | substantially unchanged from the initial value
